{
  "source": "paper PMC9959501",
  "about": "“Critical Analysis and Optimization of Stoichiometric Ratio of Drug-Coformer on Cocrystal Design: Molecular Docking, In Vitro and In Vivo Assessment” (Pharmaceuticals, 2023)",
  "key": {"[1]": {"assay": "Equilibrium solubility analysis", "assay_type": "physicochemical", "settings": "distilled water, 25 °C, stirred 24 h; mean ± SD, n = 3", "experimental": "Improvement in solubility may due to the formation of hydrogen bonds between the imidazole rings of telmisartan and polar carboxylate hydrogens of maleic acid in presence of solvents.\nThe solubility analysis of telmisartan and prepared telmisartan-maleic acid cocrystals were assessed by placing an excessive amount of sample in 50 mL of distilled water at 25 °C. Then it was stirred for 24 h using a magnetic stirrer to ensure that the solution must reach equilibrium, and then sonicated (Imeco Sonifier, Imeco Ultrasonics, Pune, India) for 15 min. Then the solution was filtered and subjected to spectrophotometric analysis at 296 nm, using a UV-visible spectrophotometer (UV-1800 Shimadzu, Kyoto, Japan)."}, "[2]": {"assay": "In vitro dissolution study (USP apparatus II)", "assay_type": "physicochemical", "settings": "phosphate buffer pH 7.5, 100 rpm, 37 ± 0.5 °C", "experimental": "The dissolution study was performed in a phosphate buffer (pH 7.5) using a USP dissolution rate test apparatus II (LAB INDIA, DS 8000, Thane, India) at 100 rpm and 37 ± 0.5 °C (Figure 7). […] The enhancement in dissolution may be due to the formation of hydrogen bonds between telmisartan and maleic acid in presence of solvents. The computational simulation approach already predicted this finding. Another reason for the enhancement of dissolution may be a reduction in crystal size, solubilization effect of the carrier as well as improved wettability of the drug in presence of solvents.\nA USP dissolution rate test apparatus II (LAB INDIA, DS 8000, India) was used to perform the dissolution studies of pure telmisartan and prepared multicomponent solid form (telmisartan cocrystals) in phosphate buffer medium (pH 7.5) at 37 ± 0.5 °C. An accurately weighed amount of sample was placed in a 900 mL dissolution medium and stirred at 100 rpm. At each specific time interval, a 5 mL sample was withdrawn and replaced by an equal volume of fresh pre-warmed phosphate buffer (pH 7.5) to maintain the sink condition throughout the experiment. The samples were filtered through Whatman filter paper (0.45 µm) and analyzed at 296 nm using a UV-visible spectrophotometer (UV-1800 Shimadzu, Japan). The dissolution studies were conducted in triplicate."}, "[3]": {"assay": "Pharmacokinetic study in rats", "assay_type": "in vivo", "settings": "male, Wistar, po, 1 mg/kg telmisartan equivalent in 0.5% w/v sodium carboxymethylcellulose, mean ± SD, n = 6", "experimental": "In vivo study protocol was approved by the Institutional Animal Ethical Committee, Dr. B. C. Roy College of Pharmacy & AHS., Durgapur, West Bengal, India (Approval No: BCRCP/IAEC/8/2019). The pharmacokinetic study was performed using male Wistar rats (180–200 g). The animals were allowed to be acclimatized for a period of 1 week in our laboratory environment prior to the experiment and had free access to water and food.\nThe animals were divided into two groups. Group 1 (6 animals) received pure telmisartan (1 mg/kg) with 0.5% w/v sodium carboxymethylcellulose, and Group 2 (6 animals) received optimized cocrystals (equivalent to 1 mg/kg pure telmisartan) with 0.5% w/v sodium carboxymethylcellulose. Blood samples were collected at predetermined time intervals from the retro-orbital venous plexus of the rats and centrifuged for 5 min at 10,000 rpm. The plasma was separated and drug analysis was carried out by RP-HPLC method using the software ‘Class-Vp series version 5.03 (Shimadzu)’. The in vivo pharmacokinetic parameters such as peak plasma concentration (Cmax), total area under the plasma concentration-time curve (AUC0–∞), elimination rate constant (KE), and relative bioavailability (%) were calculated by using Kinetica software (version 4.4.1; Thermo Fisher Scientific, Waltham, MA, USA)."}, "[4]": {"assay": "Crystallite size from PXRD data (Scherrer's formula)", "assay_type": "physicochemical", "experimental": "An XRD study was performed to assess the physico-chemical state of telmisartan in prepared telmisartan-maleic acid cocrystals. The XRD study was performed by X-Ray Diffractometer (X’Pert Pro, Panalytical, Almelo, The Netherlands) using monochromatized Cu Kα radiation (λ = 1.54 Å) at a voltage of 45 kV and a current of 40 mA. Measurements were carried out in the angular scan range from 5° to 50° (2θ) at a scan speed of 1°/min. This study also helps to determine the size of the formed crystallite using Scherrer’s formula. Crystallite size Dp=K λ/Bcosθ, where Dp is average crystallite size (nm), K is Scherrer constant, λ is X-ray wavelength, B is FWHM (Full Width at Half Maximum) of XRD peak, and θ is XRD peak position."}},
  "data": [
    {"smiles": "CCCc1nc2c(C)cc(-c3nc4ccccc4n3C)cc2n1Cc1ccc(-c2ccccc2C(=O)O)cc1", "note": "[PD, Telmisartan]", "values": [
      {"measurement": "solubility at 24 h", "setting": "[1]", "result": "5.15 ± 1.16", "unit": "µg/mL"},
      {"measurement": "Percentage drug dissolved within 120 min", "setting": "[2]", "result": "29.04 ± 2.06", "unit": "%"},
      {"measurement": "k el", "setting": "[3]; plasma, rat, read-out: KE (elimination rate constant) (converted)", "result": "3e-05", "unit": "s⁻¹"},
      {"measurement": "AUC(0-inf)", "setting": "[3]; rat plasma", "result": "4180 ± 87.8", "unit": "ng·h/mL"},
      {"measurement": "Cmax", "setting": "[3]; rat plasma", "result": "945 ± 27.9", "unit": "ng/mL"},
      {"measurement": "Average crystallite size", "setting": "[4]", "result": "893.51 ± 42.82", "unit": "nm"}
    ]}
  ]
}
